Patent publication US11091531B2, “Antigen-specific helper T-cell receptor genes” (International Institute of Cancer Immunology, Inc., priority 2012, dated 2021)
Peptide text beside a SMILES is read from it.

Test system: HLA-DPB1*05:01-positive TF-1 cells
Test: 51Cr releasing assay with target cells pretreated with granzyme-inhibitor
Format: cell-based, human
Conditions: target cells pretreated with 100 μM for 2 hours; p<0.05; FIG. 4F
Experimental: To confirm whether the cytotoxic activity of the WT1332-TCR-transduced CD4^+ T-cells was dependent on the granzyme B/perforin pathway, HLA-DPB1*05:01-positive TF-1 cells pretreated with 100 μM of a granzyme-inhibitor, Ac-IETD-Cho, were used as target cells. The HLA-DPB1*05:01-positive TF-1 cells were pretreated with 100 μM of Ac-IETD-Cho or DMSO (control) for 2 hours, then labeled with ^51Cr, and incubated with WT1332-TCR-transduced CD4^+ T-cells, and ^51Cr releasing assay was performed.

CC[C@H](C)[C@H](NC(C)=O)C(=O)N[C@@H](CCC(=O)O)C(=O)N[C@H](C(=O)N[C@H](C=O)CC(=O)O)[C@@H](C)O [Ac-IETD-Cho] (Ac-IETD-aldehyde)
cytotoxic activity of WT1332-TCR-transduced CD4+ T-cells on pretreated target cells compared with DMSO: markedly lower
